From publication doi:10.1101/2023.01.30.526200v1, “The virus-encoded ion channel “viroporin” activity of the agnoprotein is required for BK Polyomavirus release from infected kidney cells” (biorxiv, 2023)

Columns and labels:
[1] = target: T1, BKPyV agnoprotein (recombinant 10xHis BK agnoprotein) (Betapolyomavirus hominis, UniProt P03085); assay: carboxyfluorescein release from liposomes, endpoint fluorescence; assay type: biochemical; conditions: recombinant protein pre-incubated with compound 10 min at room temperature; PA/PC liposomes, HBS pH 7.4; compound concentration not in text
T1 construct: full-length, N-terminal 10xHis tag kept (pET19b, codon optimised), expressed in E. coli, purified by Ni-NTA, cation exchange and C4, dissolved in DMSO; SDS-resistant oligomers (copy number undefined); reconstituted in PA/PC liposomes

[2] = target: T1, BKPyV agnoprotein (recombinant 10xHis BK agnoprotein); assay: as above; assay type: biochemical; conditions: recombinant protein pre-incubated with compound 10 min at room temperature; PA/PC liposomes, HBS pH 7.4; 400 uM rimantadine

T1 sequence (P03085 whole entry): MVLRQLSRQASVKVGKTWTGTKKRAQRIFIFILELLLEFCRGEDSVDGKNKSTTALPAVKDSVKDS

In the case of `CCCCCCCCCN1C[C@H](O)[C@@H](O)[C@H](O)[C@H]1CO` [NN-DNJ], the “reduction in CF release” value [1] is reported as “Addition of NN-DNJ also led to a significant reduction in agnoprotein mediated CF release”.
For `CC(N)C12CC3CC(CC(C3)C1)C2` (centres unmarked) [rimantadine], the “% reduction in channel activity at 400 uM” value [2] was ~ 50%.
